From PubChem BioAssay AID2060488 (Molecular Pharmacology Branch, DTP, NCI, 2025)

Test system: 966289-007-R4-J1-PDC complex spheroid viability
Assay: Anticancer human tumor 966289-007-R4-J1-PDC patient-derived pancreatic adenocarcinoma cell line growth inhibition [GQUAD]
Conditions: for IC50: curve of first compound; for viability, T/C: stronger effect = lower value; active = viability on the fitted dose curve at most 10% of control; inactive = the rest
Excerpt: DNA G-quadruplex Stabilizer Agents in Combinations in Complex Spheroids
A high-throughput screen of multi-cell type tumor spheroids was designed to identify active combinations of DNA G-quadruplex stabilizer agents and targeted small molecules. Complex spheroids include a stromal component modeled by human endothelial cells (HUVEC) and fibroblasts modeled by human mesenchymal stem cells (MSCs). The concentration ranges selected for each drug and investigational agent were based upon clinically achievable concentrations if the clinical Cmax of the agent was known.
Compounds. The drugs and investigational agents: pidnarulex (CX-5461; NSC782164), APTO-253 (NSC789042), BRACO-19 (NSC847499), peposertib (NSC802822), ceralasertib (NSC780249), elimusertib (NSC800525), camonsertib (NSC841442), AZD-1390 (NSC803789), olaparib (NSC753686), talazoparib (NSC767125), ART-558 (NSC835418), sotorasib (NSC818433), MRTX-1133 (NSC836407), SN-38 (NSC673596), topotecan (NSC609699), etoposide (NSC141540), doxorubicin (NSC123127), gemcitabine (NSC613327), 5-fluorouracil (NSC19893), paclitaxel (NSC125973), vemurafenib (NSC761431), panobinostat (NSC761190), R-306465 (JNJ-16241199; NSC773264), adavosertib (NSC754352), TP-3654 (NSC805149), carboplatin (NSC241240), KSQ-4279 (NSC840948), and staurosporine (NSC755774) were obtained from the National Cancer Institute (NCI) Developmental Therapeutics Program Chemical Repository (34). The FDA-approved anticancer drug set is available from the NCI Developmental Therapeutics Program. […] The stock solutions were prepared in dimethyl sulfoxide (DMSO, Sigma-Aldrich, St. Louis, MO, cat. D2650) at 800-fold the tested concentration and stored at -70 degrees C prior to their use. All drugs and investigational agents were tested over a range starting from a high concentration at or near the clinical Cmax and decreasing in half-log increments. If the clinical Cmax for an agent had not been determined, the highest concentration tested was 10 microM.
2.3 Cell Culture. All cells were maintained in an incubator at 37 degrees C and 5% CO2 with 95% humidity. The PDC lines were cultured according to standard operating procedures established by the NCI PDMR. All PDCs were thawed and cultured in Matrigel-coated flasks prepared with a working solution of 1X Ham's F-12 nutrient mix, without supplementation (Invitrogen, cat. 11765054), 100 U/mL penicillin-streptomycin (Invitrogen, cat. 15140122), and 2.5% Matrigel (Corning Inc., cat. 354248) for the first three passages. The 857933-349-R-J2-PDC line was cultured in 6C/Colon 1B media, which includes advanced DMEM/F-12 (Thermo Fisher Scientific, cat. 12634028), 10 mM HEPES (Thermo Fisher Scientific, cat. 15630080), 1X GlutaMAX supplement (Thermo Fisher Scientific, cat. 35050061), 0.1 mg/mL primocin (InvivoGen, cat. ant-pm-2), 10% defined fetal bovine serum, heat inactivated (HyClone Laboratories Inc., cat. SH30070.03HI), 50% L-WRN conditioned media (ATCC, cat. CRL-3276), 1.25 mM N-Acetyl-L-cysteine (Sigma-Aldrich, cat. A9165), 10 mM nicotinamide (Sigma-Aldrich, cat. N0636), 1X B-27 supplement (Thermo Fisher Scientific, cat. 17504044), 1X N-2 supplement (Thermo Fisher Scientific, cat. 17502048), 10 microM Y-27632 dihydrochloride (Tocris Bioscience, cat. 1254), and 50 ng/mL human EGF recombinant protein (Thermo Fisher Scientific, cat. PHG0311). The 485176-168-R4-J1-PDC line was cultured in Panc media, which includes all 6C/Colon 1B media components plus 100 ng/mL human FGF-10 (Thermo Fisher Scientific, cat. 100-26), 500 nM SB-431542 (Selleckchem, cat. S1067), and gastrin (Tocris, cat. 3006).
[…]

[1] = second compound 0.0316 µM, first compound 0.0316 µM
[2] = second compound 0.0316 µM, first compound 0.1 µM
[3] = second compound 0.0316 µM, first compound 0.316 µM
[4] = second compound 0.0316 µM, first compound 1 µM
[5] = second compound 0.0316 µM, first compound 3.16 µM
[6] = second compound 0.0316 µM, first compound 10 µM
[7] = second compound 0.1 µM, first compound 0.0316 µM
[8] = second compound 0.1 µM, first compound 0.1 µM
[9] = second compound 0.1 µM, first compound 0.316 µM
[10] = second compound 0.1 µM, first compound 1 µM
[11] = second compound 0.1 µM, first compound 3.16 µM
[12] = second compound 0.1 µM, first compound 10 µM
[13] = second compound 0.316 µM, first compound 0.0316 µM
[14] = second compound 0.316 µM, first compound 0.1 µM
[15] = second compound 0.316 µM, first compound 0.316 µM
[16] = second compound 0.316 µM, first compound 1 µM
[17] = second compound 0.316 µM, first compound 3.16 µM
[18] = second compound 0.316 µM, first compound 10 µM
[19] = second compound 1 µM, first compound 0.0316 µM
[20] = second compound 1 µM, first compound 0.1 µM
[21] = second compound 1 µM, first compound 0.316 µM
[22] = second compound 1 µM, first compound 1 µM
[23] = second compound 1 µM, first compound 3.16 µM
[24] = second compound 1 µM, first compound 10 µM
[25] = second compound 3.16 µM, first compound 0.0316 µM
[26] = second compound 3.16 µM, first compound 0.1 µM
[27] = second compound 3.16 µM, first compound 0.316 µM
[28] = second compound 3.16 µM, first compound 1 µM
[29] = second compound 3.16 µM, first compound 3.16 µM
[30] = second compound 3.16 µM, first compound 10 µM
[31] = second compound 10 µM, first compound 0.0316 µM
[32] = second compound 10 µM, first compound 0.1 µM
[33] = second compound 10 µM, first compound 0.316 µM
[34] = second compound 10 µM, first compound 1 µM
[35] = second compound 10 µM, first compound 3.16 µM
[36] = second compound 10 µM, first compound 10 µM
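Also: spheroids exposed to the agents for seven days before readout.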
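For viability, T/C in this document: percent viability relative to DMSO vehicle control wells taken as 100%.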

CC(C)n1c(=O)n(C)c2cnc3cc(F)c(-c4ccc(OCCCN5CCCCC5)nc4)cc3c21 + CN(C)c1ccc(Nc2c3ccc(NC(=O)CCN4CCCC4)cc3nc3cc(NC(=O)CCN4CCCC4)ccc23)cc1
5670 nM: IC50 (second compound 3.16 µM)
> 10000 nM: IC50 (second compound 0.0316 µM) | IC50 (second compound 0.1 µM) | IC50 (second compound 0.316 µM) | IC50 (second compound 1 µM)
active: viability, T/C [35] 5.65% | viability, T/C [36] 1.75%
269 nM: IC50 (second compound 10 µM)
inactive: viability, T/C [1] 108% | viability, T/C [2] 105% | viability, T/C [3] 108% | viability, T/C [4] 106% | viability, T/C [5] 108% | viability, T/C [6] 87.5% | viability, T/C [7] 103% | viability, T/C [8] 102% | viability, T/C [9] 106% | viability, T/C [10] 106% | viability, T/C [11] 107% | viability, T/C [12] 88% | viability, T/C [13] 98.1% | viability, T/C [14] 103% | viability, T/C [15] 107% | viability, T/C [16] 109% | viability, T/C [17] 107% | viability, T/C [18] 86.6% | viability, T/C [19] 103% | viability, T/C [20] 99.5% | viability, T/C [21] 107% | viability, T/C [22] 108% | viability, T/C [23] 103% | viability, T/C [24] 70.5% | viability, T/C [25] 102% | viability, T/C [26] 104% | viability, T/C [27] 107% | viability, T/C [28] 102% | viability, T/C [29] 87.1% | viability, T/C [30] 14.1% | viability, T/C [31] 98.7% | viability, T/C [32] 79% | viability, T/C [33] 46% | viability, T/C [34] 16%

COc1cc(C2c3cc4c(cc3C(OC3OC5COC(C)OC5C(O)C3O)C3COC(=O)C23)OCO4)cc(OC)c1O (stereo unspecified) + CN(C)c1ccc(Nc2c3ccc(NC(=O)CCN4CCCC4)cc3nc3cc(NC(=O)CCN4CCCC4)ccc23)cc1
202 nM: IC50 (second compound 10 µM)
300 nM: IC50 (second compound 0.0316 µM)
301 nM: IC50 (second compound 0.1 µM)
271 nM: IC50 (second compound 0.316 µM)
active: viability, T/C [4] 9.16% | viability, T/C [5] 1.79% | viability, T/C [6] 0.77% | viability, T/C [10] 9.53% | viability, T/C [11] 1.99% | viability, T/C [12] 0.86% | viability, T/C [16] 5.72% | viability, T/C [17] 2.08% | viability, T/C [18] 0.76% | viability, T/C [22] 6.82% | viability, T/C [23] 1.89% | viability, T/C [24] 1.07% | viability, T/C [28] 6.04% | viability, T/C [29] 2.44% | viability, T/C [30] 0.87% | viability, T/C [34] 3.24% | viability, T/C [35] 1.49% | viability, T/C [36] 0.61%
276 nM: IC50 (second compound 1 µM)
inactive: viability, T/C [1] 115% | viability, T/C [2] 105% | viability, T/C [3] 46.6% | viability, T/C [7] 111% | viability, T/C [8] 107% | viability, T/C [9] 46.6% | viability, T/C [13] 101% | viability, T/C [14] 104% | viability, T/C [15] 41.9% | viability, T/C [19] 104% | viability, T/C [20] 109% | viability, T/C [21] 42.4% | viability, T/C [25] 96.1% | viability, T/C [26] 108% | viability, T/C [27] 41.8% | viability, T/C [31] 108% | viability, T/C [32] 98.1% | viability, T/C [33] 19.4%
270 nM: IC50 (second compound 3.16 µM)

Cc1cccc(N(C)C(=O)C2C(O)CCN2c2nc(C)cc(C(F)(F)F)c2C#N)c1 (stereo unspecified) + CN(C)c1ccc(Nc2c3ccc(NC(=O)CCN4CCCC4)cc3nc3cc(NC(=O)CCN4CCCC4)ccc23)cc1
inactive: viability, T/C [1] 107% | viability, T/C [2] 94.7% | viability, T/C [3] 106% | viability, T/C [4] 95.8% | viability, T/C [5] 101% | viability, T/C [6] 99.3% | viability, T/C [7] 107% | viability, T/C [8] 98.5% | viability, T/C [9] 103% | viability, T/C [10] 99.7% | viability, T/C [11] 102% | viability, T/C [12] 107% | viability, T/C [13] 95.8% | viability, T/C [14] 100% | viability, T/C [15] 105% | viability, T/C [16] 101% | viability, T/C [17] 102% | viability, T/C [18] 100% | viability, T/C [19] 102% | viability, T/C [20] 105% | viability, T/C [21] 107% | viability, T/C [22] 101% | viability, T/C [23] 99.6% | viability, T/C [24] 109% | viability, T/C [25] 104% | viability, T/C [26] 106% | viability, T/C [27] 101% | viability, T/C [28] 97.3% | viability, T/C [29] 102% | viability, T/C [30] 104% | viability, T/C [31] 105% | viability, T/C [32] 103% | viability, T/C [33] 96.1% | viability, T/C [34] 72.2% | viability, T/C [35] 25.2%
active: viability, T/C [36] 7.13%
1720 nM: IC50 (second compound 10 µM)
> 10000 nM: IC50 (second compound 0.0316 µM) | IC50 (second compound 0.1 µM) | IC50 (second compound 0.316 µM) | IC50 (second compound 1 µM) | IC50 (second compound 3.16 µM)
